Data from patent US20210246886A1, “Fluorosulfones” (3M INNOVATIVE PROPERTIES COMPANY, priority 2018, published 2021).

Tests used:
[1] = Stability as foam additive in polyol/amine catalyst/cyclopentane mixture (fluoride ion release); format: physicochemical; conditions: for change of fluoride levels over time (reaction with polyol/amine catalyst mixture): over 48 hours at room temperature; for [F—] at 48 hours / [F—] at time 0: polyol/amine catalyst/foam additive/cyclopentane mixture; for [F—] at 48 hours: aged at room temperature; for [F—] at time 0: room temperature
Protocol: The stability of Example 3 (perfluorodiethylsulfone) was measured in a standard polyol/amine catalyst/foam blowing agent mixture commonly used in making polyurethane foams. The stability was compared to CE9 (PF-5060) and CE10 (FA-188), both of which are available from 3M Company, St. Paul, Minn., US. Stability was determined by measuring the increase in fluoride ion levels over time after mixing all the components at room temperature. An increase in fluoride ion levels is a measure of the extent to which the fluorinated foam additive is reacting with the polyol/amine catalyst mixture to release fluoride ion. Fluoride ion measurements were made using a ThermoScientific ORION DUAL STAR pH/ISE channel meter and VWR 14002-788 F Fluoride specific electrode. The electrode was calibrated using fluoride standards of 1, 2, 10, and 100 ppm fluoride ion concentration in aqueous TISAB II (Total Ionic Strength Adjustment Buffer) buffer solution.
The Polyol/Amine Catalyst/Blowing Agent/Foam Additive sample mixtures were prepared by mixing ELASTAPOR P 17655R Resin (a polyol/amine catalyst blend obtained from BASF, Ludwigshafen, Germany), cyclopentane (a common foam blowing agent), and Example 3, CE9, or CE10 as a foam additive. Using a SARTORIUS A200S balance, the cyclopentane/foam additive mixtures were made first by mixing 25.5 grams of cyclopentane with 2.3 grams of foam additive. Then 43.1 grams of the ELASTAPOR polyol containing the amine catalyst was transferred to a wide mouth 4 oz glass jar and 7 g of the cyclopentane/foam additive mixture was added and shaken.
After the sample mixtures were thoroughly shaken and mixed, an aliquot was removed and an initial fluoride concentration was determined at time 0 hr. Analytical samples were prepared by diluting 1 g of the sample mixture with 1 g of isopropyl alcohol and 0.5 mL of 1N sulfuric acid in a polypropylene centrifuge tube and mixing thoroughly. The sample was further diluted with 1 g of water and mixed again. From this mixture a 1 mL aliquot was taken and mixed with 1 mL of TISAB II solution in a fresh polypropylene centrifuge tube and mixed thoroughly prior to fluoride ion measurement. An average of 3 independent fluoride measurements were used to determine the fluoride concentration of each sample using the fluoride specific electrode and meter described above. Similar measurements were taken every 24 hours. The results are summarized in Table 8 below after 0 and 48 hours.

[2] = Hydrolytic stability: free fluoride in water phase after aging with deionized water; format: physicochemical
Protocol: Duplicate samples of Example 3 and CE1 were tested for hydrolytic stability at 150° C. by placing 10 grams of test material along with 10 grams deionized water in a clean, 40 mL Monel pressure vessel, which was sealed and placed in a convection oven set at 150° C. for 24 hours. After aging, the fluoride concentrations were determined by mixing 1 mL of the water phase from each sample with 1 mL of TISAB II (Total Ionic Strength Buffer) buffer solution. Fluoride ion concentrations were then measured using an ORION EA 940 meter with an ORION 9609BNWB Fluoride-Ion Specific Electrode (ISE) (Thermo Fisher Scientific, Minneapolis, Minn., US). ORION IONPLUS Fluoride standards (1, 2, 10 and 100 ppm Fluoride) were used for the calibration of the meter.
The hydrolytic stability values of Example 3 and CE1 are reported as average parts per million by weight (ppmw) of free fluoride in water in Table 4. Higher levels of free fluoride ion concentration correspond to reduced stability.

[3] = Thermal stability: fluoride ion after aging neat in Monel pressure vessel; format: physicochemical
Protocol: The thermal stability of Example 3 and CE1 was determined by placing duplicate 10-gram samples in clean, 40 mL Monel pressure vessels and sealing tightly. The pressure vessels were then placed in a convection oven set at 100° C. for 24 hours. After aging, each sample was mixed with a known weight of ultrapure (18.2 MΩ) water, agitated in a mechanical shaker at high speed for 15 minutes and finally centrifuged to separate the two phases. Fluoride ion concentrations were subsequently measured in the water phase as previously described. This was then followed by another experiment at 150° C. using the same method.

[4] = test system: male Sprague Dawley rats; test: Inhalation toxicity in rats, single 4-hour whole body exposure; format: in vivo, rat
Protocol: The inhalation toxicity potential of Example 3 was evaluated in male Sprague Dawley rats after a single 4-hour whole body exposure at atmospheric concentrations of 10,000 ppm (v/v). The test material (purity 98.84%) was administered as received at an appropriate volume to a 40-L test chamber containing 3 rats. The test material vaporized upon addition to the chamber. The air within the chamber was regenerated at appropriate intervals to maintain an 18% oxygen concentration. Three control animals were placed in another chamber filled with ambient air. The day of exposure was designated Day 0. Clinical observations were recorded during the exposure period and for 14 days after exposure. Body weights were recorded prior to exposure (Day 0), on Day 1, Day 2, and 14 days after exposure for both the test material-treated and control animals.

Row | Structure (SMILES) | change of fluoride levels over time (reaction with polyol/amine catalyst mixture) [1] | [F—] at 48 hours [1] [ppm] | [F—] at time 0 [1] [ppm] | Average F concentration after 24 hours at 150° C. with DI H2O ([2]; 10 g sample + 10 g deionized water, Monel vessel, 150° C., 24 hours) [ppmw] | Average F concentration at room temperature ([2]; hydrolytic stability test, before aging) [ppmw] | Average F concentration after 24 hours at 100° C. ([3]; neat, no water, Monel vessel) [ppmw] | Average F concentration after 24 hours at 150° C. ([3]; neat, no water, Monel vessel) [ppmw] | Average F concentration at room temperature ([3]; thermal stability test, before aging) [ppmw] | mortality and clinical observations ([4]; 10,000 ppm (v/v), during 4-hour exposure and throughout 14-day study) | body weight, condition and gross necropsy ([4]; 10,000 ppm (v/v), single 4-hour exposure, 14-day study) | approximate inhalation 4-hour LC50 ([4]; male Sprague Dawley rats, single 4-hour whole body exposure at 10,000 ppm (v/v), 14 days observation)
1 | FC(F)(F)C(F)(F)C(F)(F)C(F)(F)C(F)(F)C(F)(F)F [CE9] | essentially unchanged | 0.71 | 0.83 |  |  |  |  |  |  |  | 
2 | O=S(=O)(C(F)(F)C(F)(F)F)C(F)(F)C(F)(F)F [Example 3, Perfluorodiethylsulfone] | essentially unchanged | 10.67 | 11.74 | 11.55 | <0.05 | <0.05 | 0.36 | <0.05 | no mortality or abnormal clinical observations | gained weight and were normal | greater than 10,000 ppm
